Measurements published in paper PMC11876601 (Molecular Systems Biology, 2025).
Several values for one entry are separate records, joined by “and”; a condition that tells them apart may be missing. Equal entries are not always repeated. Where two headings read alike, the source gives them in different places.

Tested on: AsPC-1 cells
Assay: Cell proliferation assay, chemodrug + ATR inhibitor (Incucyte confluence, 72 h);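 further: underlying read-out for every value is AsPC-1 confluence after 72 h incubation at 37 °C and 5% CO2, divided by that well's starting confluence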
Details: for Curve bottom / Curve slope / Curve top: fitted dose-response curve; for Curve bottom / Curve top: relative response; for Raw data (confluence at 72 h/confluence at 0 h): Berzosertib experiment; for EC50: Homo sapiens
[1] = AsPC1, Experiment GEM+ATRi_dose1
[2] = AsPC1, Experiment GEM+ATRi_dose2
[3] = AsPC1, Experiment GEM+ATRi_dose3

Experimental: Cells were seeded at 5000 cells/well into 96-well flat bottom plates (Eppendorf) and allowed to attach overnight. […] Cells were incubated for 72 h at 37 °C and 5% CO2. Cell confluence readouts at 72 h were either normalized to their initial confluence using the Incucyte software (AsPC-1) or used without prior normalization (all others). […] Each experiment was performed in triplicates, the data was plotted as mean ± standard deviation (s.d.).

CNCc1ccc(-c2cc(-c3nc(-c4ccc(S(=O)(=O)C(C)C)cc4)cnc3N)on2)cc1 [Berzosertib]
Curve bottom (AsPC1, Experiment ATRi (ATR inhibitor alone)): 1.08 and 1.02 and 1.03 | Curve slope [1]: 1.49 and 1.39 and 2.10 | Curve bottom [1]: 1.02 and 0.99 and 0.96 | Curve top [1]: 0.52 and 0.41 and 0.43 | Curve bottom [2]: 1.02 and 0.89 and 0.87 | Curve top [2]: 0.47 and 0.41 | Curve slope [3]: 1.48 and 2.60 and 1.95 | Curve bottom [3]: 1.02 and 0.71 and 0.76 | Curve top [3]: 0.44 and 0.38 and 0.37 | Response (AsPC1, GEM 100 nM + ATRi 30 nM): 1.96 | Response (AsPC1, GEM 300 nM + ATRi 30 nM): 1.76 | Response (AsPC1, GEM 1000 nM + ATRi 30 nM): 1.64 | Response (AsPC1, GEM 3000 nM + ATRi 30 nM): 1.69 | Raw data (confluence at 72 h/confluence at 0 h) (replicate R2, titrated drug dose 100 nM): 1.63 | Raw data (confluence at 72 h/confluence at 0 h) (replicate R2, titrated drug dose 300 nM): 3.32 | Raw data (confluence at 72 h/confluence at 0 h) (replicate R2, titrated drug dose 1000 nM): 1.81 | Raw data (confluence at 72 h/confluence at 0 h) (replicate R2, titrated drug dose 3000 nM): 0.95 | Raw data (confluence at 72 h/confluence at 0 h) (replicate R2, titrated drug dose 10000 nM): 1.02 | Raw data (confluence at 72 h/confluence at 0 h) (replicate R3, titrated drug dose 3 nM): 3.53 | Raw data (confluence at 72 h/confluence at 0 h) (replicate R3, titrated drug dose 10 nM): 3.58 | Raw data (confluence at 72 h/confluence at 0 h) (replicate R3, titrated drug dose 30 nM): 3.44 | Raw data (confluence at 72 h/confluence at 0 h) (replicate R3, titrated drug dose 100 nM): 1.82 | Raw data (confluence at 72 h/confluence at 0 h) (replicate R3, titrated drug dose 300 nM): 3.31 | Raw data (confluence at 72 h/confluence at 0 h) (replicate R3, titrated drug dose 1000 nM): 1.82 | Raw data (confluence at 72 h/confluence at 0 h) (replicate R3, titrated drug dose 3000 nM): 0.98 | Raw data (confluence at 72 h/confluence at 0 h) (replicate R3, titrated drug dose 10000 nM): 1.08 | Raw data (confluence at 72 h/confluence at 0 h) (replicate R1, titrated drug dose 3 nM): 3.58 | Raw data (confluence at 72 h/confluence at 0 h) (replicate R1, titrated drug dose 10 nM): 3.42 | Raw data (confluence at 72 h/confluence at 0 h) (replicate R1, titrated drug dose 30 nM): 3.67 | Raw data (confluence at 72 h/confluence at 0 h) (replicate R1, titrated drug dose 100 nM): 3.44 | Raw data (confluence at 72 h/confluence at 0 h) (replicate R1, titrated drug dose 300 nM): 3.48 | Raw data (confluence at 72 h/confluence at 0 h) (replicate R1, titrated drug dose 1000 nM): 1.39 | Raw data (confluence at 72 h/confluence at 0 h) (replicate R1, titrated drug dose 3000 nM): 1.11 | Raw data (confluence at 72 h/confluence at 0 h) (replicate R1, titrated drug dose 10000 nM): 1.24 | Raw data (confluence at 72 h/confluence at 0 h) (replicate R2, titrated drug dose 3 nM): 3.47 | Raw data (confluence at 72 h/confluence at 0 h) (replicate R2, titrated drug dose 10 nM): 3.62 | Raw data (confluence at 72 h/confluence at 0 h) (replicate R2, titrated drug dose 30 nM): 3.68 | Response (GEM 0 nM, ATRi 30 nM): 3.26 and 3.50 and 3.35 | Response (GEM 0 nM, ATRi 300 nM): 3.38 and 2.28 and 2.67 | Response (GEM 1 nM + ATRi 30 nM): 3.40 and 3.47 and 3.32 | Response (GEM 1 nM + ATRi 100 nM): 3.25 and 2.45 and 2.30 | Response (GEM 1 nM + ATRi 300 nM): 3.17 and 2.72 and 2.68 | Response (GEM 3 nM + ATRi 30 nM): 3.21 and 3.37 and 3.20 | Response (GEM 3 nM + ATRi 100 nM): 3.16 and 3.42 and 3.23 | Response (GEM 3 nM + ATRi 300 nM): 3.33 and 2.50 and 2.49 | Response (GEM 10 nM + ATRi 30 nM): 3.02 and 3.24 and 3.22 | Response (GEM 10 nM + ATRi 100 nM): 2.95 and 3.25 and 2.97 | Response (GEM 10 nM + ATRi 300 nM): 2.69 and 2.35 and 2.32 | Response (GEM 30 nM + ATRi 30 nM): 2.26 and 2.69 and 2.57 | Response (GEM 30 nM + ATRi 100 nM): 2.27 and 2.08 and 1.96 | Response (GEM 30 nM + ATRi 300 nM): 2.06 and 1.65 and 1.60 | Response (GEM 100 nM + ATRi 30 nM): 1.68 | Response (GEM 100 nM + ATRi 100 nM): 1.81 and 1.49 and 1.48 | Response (GEM 100 nM + ATRi 300 nM): 1.53 and 1.40 and 1.31 | Response (GEM 300 nM + ATRi 30 nM): 1.65 and 1.49 | Response (GEM 300 nM + ATRi 100 nM): 1.60 and 1.52 and 1.44 | Response (GEM 300 nM + ATRi 300 nM): 1.48 and 1.38 and 1.24 | Response (GEM 1000 nM + ATRi 30 nM): 1.43 and 1.48 | Response (GEM 1000 nM + ATRi 100 nM): 1.53 and 1.41 and 1.39 | Response (GEM 1000 nM + ATRi 300 nM): 1.41 and 1.36 and 1.30 | Response (GEM 3000 nM + ATRi 30 nM): 1.40 and 1.48 | Response (GEM 3000 nM + ATRi 100 nM): 1.58 and 1.38 and 1.33 | Response (GEM 3000 nM + ATRi 300 nM): 1.46 and 1.27 | EC50 (ASPC1, 72 h, AsPC1, Experiment ATRi (ATR inhibitor alone), single replicates R1-R3): 647 nM | EC50 (ASPC1, 72 h, read-out: EC50 (cell growth), ATR inhibitor as single agent): 766 nM | EC50 (ASPC1, 72 h, read-out: EC50 mean [nM], AsPC1, Experiment ATRi (ATR inhibitor alone), mean of replicates): 719 nM | EC50 (ASPC1, 72 h, read-out: pEC50, AsPC1 (converted), Experiment ATRi (ATR inhibitor alone), single replicates R1-R3): 646 nM | EC50 (ASPC1, read-out: EC50 mean [nM], AsPC1, Experiment ATRi (ATR inhibitor alone), mean of replicates): 719 nM
